Data: PubChem BioAssay AID2060894 (Molecular Pharmacology Branch, DTP, NCI, 2025)

System: K12877-001-R-J1-PDC complex spheroid viability
Test: Anticancer human tumor K12877-001-R-J1-PDC patient-derived lung adenocarcinoma cell line growth inhibition [RAS]
Settings: for IC50: curve of first compound; for viability, T/C: stronger effect = lower value; active means viability on the fitted dose curve at most 10% of control; inactive means the rest
Procedure, shortened: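 Tumour cells grown as complex spheroids with HUVEC endothelial cells and mesenchymal stem cells, treated with RAS pathway inhibitor combinations. Each agent spans half-log steps from near clinical Cmax, or 10 microM where Cmax is unknown.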

[1] = second compound 0.0316 µM, first compound 0.00316 µM
[2] = second compound 0.0316 µM, first compound 0.01 µM
[3] = second compound 0.0316 µM, first compound 0.0316 µM
[4] = second compound 0.0316 µM, first compound 0.1 µM
[5] = second compound 0.0316 µM, first compound 0.316 µM
[6] = second compound 0.0316 µM, first compound 1 µM
[7] = second compound 0.1 µM, first compound 0.00316 µM
[8] = second compound 0.1 µM, first compound 0.01 µM
[9] = second compound 0.1 µM, first compound 0.0316 µM
[10] = second compound 0.1 µM, first compound 0.1 µM
[11] = second compound 0.1 µM, first compound 0.316 µM
[12] = second compound 0.1 µM, first compound 1 µM
[13] = second compound 0.316 µM, first compound 0.00316 µM
[14] = second compound 0.316 µM, first compound 0.01 µM
[15] = second compound 0.316 µM, first compound 0.0316 µM
[16] = second compound 0.316 µM, first compound 0.1 µM
[17] = second compound 0.316 µM, first compound 0.316 µM
[18] = second compound 0.316 µM, first compound 1 µM
[19] = second compound 1 µM, first compound 0.00316 µM
[20] = second compound 1 µM, first compound 0.01 µM
[21] = second compound 1 µM, first compound 0.0316 µM
[22] = second compound 1 µM, first compound 0.1 µM
[23] = second compound 1 µM, first compound 0.316 µM
[24] = second compound 1 µM, first compound 1 µM
[25] = second compound 3.16 µM, first compound 0.00316 µM
[26] = second compound 3.16 µM, first compound 0.01 µM
[27] = second compound 3.16 µM, first compound 0.0316 µM
[28] = second compound 3.16 µM, first compound 0.1 µM
[29] = second compound 3.16 µM, first compound 0.316 µM
[30] = second compound 3.16 µM, first compound 1 µM
[31] = second compound 10 µM, first compound 0.00316 µM
[32] = second compound 10 µM, first compound 0.01 µM
[33] = second compound 10 µM, first compound 0.0316 µM
[34] = second compound 10 µM, first compound 0.1 µM
[35] = second compound 10 µM, first compound 0.316 µM
[36] = second compound 10 µM, first compound 1 µM
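Further: spheroids exposed to agents for one week before readout.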
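Wherever viability, T/C is given: tumour cells co-cultured with HUVEC and mesenchymal stem cells in spheroids.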

CCN1CCN(Cc2ccc(Nc3ncc(F)c(-c4cc(F)c5nc(C)n(C(C)C)c5c4)n3)nc2)CC1 + C#Cc1c(F)ccc2cc(O)cc(-c3ncc4c(N5CC6CCC(C5)N6)nc(OCC56CCCN5CC(F)C6)nc4c3F)c12
inactive: viability, T/C [1] 106% | viability, T/C [2] 101% | viability, T/C [3] 106% | viability, T/C [4] 85.6% | viability, T/C [5] 118% | viability, T/C [6] 97.2% | viability, T/C [7] 97.9% | viability, T/C [8] 102% | viability, T/C [9] 113% | viability, T/C [10] 97.8% | viability, T/C [11] 118% | viability, T/C [12] 88.4% | viability, T/C [13] 115% | viability, T/C [14] 107% | viability, T/C [15] 98.6% | viability, T/C [16] 99.2% | viability, T/C [17] 109% | viability, T/C [18] 108% | viability, T/C [19] 109% | viability, T/C [20] 113% | viability, T/C [21] 96.7% | viability, T/C [22] 104% | viability, T/C [23] 108% | viability, T/C [24] 82.2% | viability, T/C [25] 108% | viability, T/C [26] 105% | viability, T/C [27] 97% | viability, T/C [28] 94.1% | viability, T/C [29] 76.1% | viability, T/C [30] 83.9% | viability, T/C [31] 105% | viability, T/C [32] 84.8% | viability, T/C [33] 90.4% | viability, T/C [34] 92.3% | viability, T/C [35] 87.2% | viability, T/C [36] 56.7%
> 1 µM: IC50 (second compound 0.0316 µM) | IC50 (second compound 0.1 µM) | IC50 (second compound 0.316 µM) | IC50 (second compound 1 µM) | IC50 (second compound 3.16 µM) | IC50 (second compound 10 µM)

C=CC(=O)N1CCN(c2nc(OCC3CCCN3C)nc3c(F)c(-c4nc(N)cc(C)c4C(F)(F)F)c(Cl)cc23)C(C)C1 (centres undefined) + C#Cc1c(F)ccc2cc(O)cc(-c3ncc4c(N5CC6CCC(C5)N6)nc(OCC56CCCN5CC(F)C6)nc4c3F)c12
> 1 µM: IC50 (second compound 0.0316 µM) | IC50 (second compound 0.1 µM) | IC50 (second compound 0.316 µM) | IC50 (second compound 1 µM) | IC50 (second compound 3.16 µM) | IC50 (second compound 10 µM)
inactive: viability, T/C [1] 97.7% | viability, T/C [2] 87.3% | viability, T/C [3] 90.9% | viability, T/C [4] 79.4% | viability, T/C [5] 85.3% | viability, T/C [6] 72.8% | viability, T/C [7] 99.2% | viability, T/C [8] 84.5% | viability, T/C [9] 83.7% | viability, T/C [10] 78.3% | viability, T/C [11] 83.8% | viability, T/C [12] 75.5% | viability, T/C [13] 95.8% | viability, T/C [14] 86.2% | viability, T/C [15] 83.4% | viability, T/C [16] 89.7% | viability, T/C [17] 75% | viability, T/C [18] 81.9% | viability, T/C [19] 101% | viability, T/C [20] 85.3% | viability, T/C [21] 77.5% | viability, T/C [22] 89.8% | viability, T/C [23] 78.2% | viability, T/C [24] 77.8% | viability, T/C [25] 106% | viability, T/C [26] 92.2% | viability, T/C [27] 80.7% | viability, T/C [28] 83.1% | viability, T/C [29] 85% | viability, T/C [30] 73.9% | viability, T/C [31] 94.4% | viability, T/C [32] 87.3% | viability, T/C [33] 79.1% | viability, T/C [34] 79.8% | viability, T/C [35] 78.2% | viability, T/C [36] 83.2%
